This data set is described as follows: gradient 5% acetonitrile 3 min, to 50% in 2 min, to 85% in 15 min, held 3 min, 100 µL/min. To be noted: column: Zorbax Extend-C18 2.1 x 50 mm; eluents: water / acetonitrile, 0.1% formic acid. Summed up: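 Retention time was recorded from adduct peaks, which were picked computationally and each inspected manually. Pure standards ran in mixtures of ~100 molecules on HPLC coupled to a quadrupole time-of-flight mass spectrometer, in positive and negative ionization mode, through a Zorbax Extend-C18 column (2.1 × 50 mm, 1.8 μm) at 100 μL/min. Eluents were water and acetonitrile, each with 0.1% formic acid.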
Compound `O=C(Nc1cccn2ncnc12)c1cccs1` registered an RP-LC retention time of 690 s.

Regarding `Cc1cc(N2CCN(C)CC2)nc2ccc(NC(=S)N3CCC(C)CC3)cc12`, the RP-LC retention time worked out at 604 s.

`CCS(=O)(=O)N1CC(=O)N(c2cc(C)ccc2C)C(C)(C(=O)NCc2ccc(F)cc2)C1` (stereo not drawn) returned an RP-LC retention time of 861 s.

The compound `Cc1cnc(C2CN(S(=O)(=O)c3cccc(F)c3)C2)n1CC1CC1` gave an RP-LC retention time of 656 s.

On to `Cc1ccc(S(=O)(=O)CCc2nc3ccccc3n2CC(=O)O)cc1`, for which the RP-LC retention time came to 607 s.

`Cc1cccc(C2CCCN2C(=O)c2c(Br)cnn2C)c1` (stereo not drawn) registered an RP-LC retention time of 908 s.

For `CN(C)c1cccc(-c2nc(-c3ccc4c(c3)nnn4CCN3CCOCC3)no2)c1`, the RP-LC retention time stood at 706 s.

As for `CC(=O)c1ccc(NS(=O)(=O)c2ccc(-c3c(C)noc3C)cc2)cc1`, the RP-LC retention time amounted to 813 s.

`COc1cc(OC)cc(C(=O)N2CCN(c3cc(C(C)C)n4cnnc4n3)CC2)c1` displayed an RP-LC retention time of 576 s.

Take `Cc1scc2nc(C(=O)Nc3cccc(F)c3)nc(N3CCCC3)c12`: the RP-LC retention time is 567 s.

Compound `CC(C)c1nccn1C1CN(C(=O)c2ccc3[nH]ccc3c2)C1` gave an RP-LC retention time of 580 s.

`Cc1ccc(C)c(N2CCN(C(=O)c3cc(C)n4nccc4n3)CC2)c1` yielded an RP-LC retention time of 986 s.

The compound `COCC(C)(O)CNS(=O)(=O)Cc1cccc(F)c1` (stereo not drawn) displayed an RP-LC retention time of 641 s.

Consider `O=C(NCc1ccccc1F)C1CCN(C(=O)c2ncn3c2COC(c2ccc(F)cc2)C3)CC1` (stereo not drawn), for which the RP-LC retention time is 736 s.

The compound `COc1cc(-c2nc(Nc3ccc(C)cc3)c3ccccc3n2)cc(OC)c1OC` registered an RP-LC retention time of 796 s.

Compound `O=C(NC1CC1)C1(CCO)CCN(Cc2ccccc2)C1` (stereo not drawn) had an RP-LC retention time of 564 s.

The compound `O=C1CC(c2nc(-c3cccc(C(F)(F)F)c3)no2)CN1c1ccc2c(c1)OCO2` (stereo not drawn) had an RP-LC retention time of 1020 s.

Regarding `CCn1c(=O)c(N2CCN(S(=O)(=O)c3ccc(Cl)s3)CC2)nc2ccncc21`, the RP-LC retention time was 739 s.

`O=C(NCc1ccc(C(F)(F)F)cc1)C1CCN(c2nnc3ccc(Cl)cn23)CC1` displayed an RP-LC retention time of 718 s.

As for `O=C(c1cccc2[nH]ccc12)N1CC(Oc2cccc(-c3nc(-c4ccccc4)no3)c2)C1`, the RP-LC retention time amounted to 1090 s.

Take `O=C1Cc2cc(NC(=O)NCCCc3ccccc3)ccc2N1`: the RP-LC retention time was 657 s.

In turn, `Cc1ccc(S(=O)(=O)N2CCC(c3nc(-c4ccncc4)no3)CC2)cc1C` gave an RP-LC retention time of 983 s.

In turn, `O=C(NCc1ccccc1)N1CC(Oc2cccc(-c3nc(-c4ccccc4)no3)c2)C1` registered an RP-LC retention time of 1130 s.

The compound `CCCOc1cc(N2CCN(C(=O)c3ccc4c(c3)OCO4)CC2)nc(C)n1` came in with an RP-LC retention time of 608 s.

`O=C(c1cccc(F)c1)N1CCN(c2ccc(=O)n(-c3ccc(Cl)cc3)n2)CC1` yielded an RP-LC retention time of 871 s.

Compound `Cc1cc(N(C)C)nc(N2CCN(C(=O)c3ccc(Br)cc3)CC2)n1` returned an RP-LC retention time of 658 s.

As to `COCCC1(NS(C)(=O)=O)CCN(C(=O)C2(c3ccc(OC)cc3)CC2)CC1`, the RP-LC retention time is 710 s.

`COc1ccc2[nH]c3c(c2c1)CCNC3` returned an RP-LC retention time of 365 s.

`COC(=O)c1ccccc1NC(=O)C1CN(C(=O)c2ccc(F)c(F)c2)C1` had an RP-LC retention time of 803 s.

`CC1=C(c2ccc(F)cc2)S(=O)(=O)N=C1N1CCCN(C(=O)C2CCCC2)CC1`: the RP-LC retention time is 828 s.

`CCc1nc(-c2csc(S(=O)(=O)N3CCC(C(=O)NCC4CCCO4)CC3)c2)no1` (stereo not drawn) displayed an RP-LC retention time of 764 s.

`O=C(Cc1cccs1)N1CCCC1(CO)Cc1ccccc1` (stereo not drawn) gave an RP-LC retention time of 853 s.

Turning to `CC(NC(=O)c1cnn2c(-c3ccc4c(c3)OCO4)ccnc12)c1ccc(F)cc1` (stereo not drawn), the RP-LC retention time came out at 1000 s.

In turn, `COc1ccc(CNC(=O)C2(C)CCN(C(=O)Nc3ccc(C)c(Cl)c3)CC2)cc1` came in with an RP-LC retention time of 935 s.

`CCN(CC)S(=O)(=O)c1ccc2c(c1)N(CC(=O)NC1CCCCCC1)C(=O)C1CCCCN21` (stereo not drawn) had an RP-LC retention time of 1050 s.

For `COc1ccc(-c2onc(C)c2C)cc1S(=O)(=O)N1CCN(c2ccccn2)CC1`, the RP-LC retention time stood at 683 s.

As for `CCc1noc(NC(C)=O)c1-c1ccc(OC)c(S(=O)(=O)Nc2ccccc2OC)c1`, the RP-LC retention time is 791 s.

In turn, `Cc1ccc(CC(=O)Nc2ccc(-c3nc(Cn4nc(C)cc4C)c(C)o3)cc2)cc1` displayed an RP-LC retention time of 559 s.

`COc1ccc(N2CC(c3noc(-c4ccccc4)n3)CC2=O)cc1` (stereo not drawn) displayed an RP-LC retention time of 919 s.

Consider `CC(=O)N1CCCSc2ccc(S(=O)(=O)N3CCC(CN4CCc5ccccc5C4)CC3)cc21`, for which the RP-LC retention time turned out to be 671 s.

Take `Cc1ccc(-c2nc3ncccn3c2Nc2c(C)cccc2C)cc1`: the RP-LC retention time came to 820 s.

`Cc1ccc(-c2cn3cccc(C)c3n2)cc1NS(=O)(=O)c1ccccc1`: the RP-LC retention time was determined as 672 s.

In turn, `O=C(Nc1cccc(C(F)(F)F)c1)NC1(c2nc(C3CC3)no2)CCCCC1` registered an RP-LC retention time of 1030 s.

`CCOC(=O)NCCS(=O)(=O)N1CCN(c2ccc(OC)cc2)CC1` displayed an RP-LC retention time of 695 s.

`CCCN1C(=O)COc2ccc(-c3noc(CCc4c[nH]c5ccccc45)n3)cc21` gave an RP-LC retention time of 1110 s.

Compound `O=C(Cn1ncc2c(N3CCN(c4ccccn4)CC3)ncnc21)Nc1ccc(F)c(Cl)c1` had an RP-LC retention time of 650 s.

The compound `CC(C)n1c(CC2CCN(C(=O)Nc3ccccc3Cl)C2)nc2cccnc21` (stereo not drawn) registered an RP-LC retention time of 648 s.

In the case of `COC(=O)Nc1ccc(-c2nc(N3CCOCC3)c3cnn(C4CCN(Cc5cccnc5)CC4)c3n2)cc1`, the RP-LC retention time was 665 s.

Turning to `CCCC(NC(=O)c1ccc(C(F)(F)F)cc1)C(=O)Nc1nc2ccccc2[nH]1` (stereo not drawn), the RP-LC retention time was found to be 802 s.

The compound `O=C(NCc1cccnc1)C1CCN(c2nnc3ccc(C(F)(F)F)cn23)CC1` gave an RP-LC retention time of 536 s.

Regarding `COc1ccc(NC(=O)Cn2nc3nc(Nc4ccc(F)cc4)ccn3c2=O)cc1Cl`, the RP-LC retention time was 718 s.

For the compound `COCCN(Cc1ccncc1)S(=O)(=O)c1ccc(-c2ccccc2)cc1`, the RP-LC retention time was 630 s.

Regarding `O=C(Cn1c(=O)oc2ccc(Cl)cc21)N1CCc2ccccc21`, the RP-LC retention time was determined as 898 s.

Take `COc1ccc(-c2noc(CN3CCN(c4ccccn4)CC3)n2)cc1`: the RP-LC retention time came out at 621 s.

Turning to `COc1cc(NS(=O)(=O)c2c(C)sc(C)c2-c2cc(C(F)(F)F)on2)cc(OC)c1`, the RP-LC retention time turned out to be 1140 s.

For the compound `O=C1CN(Cc2ccc(OC(F)(F)F)cc2)C2(CCCC2)CN1`, the RP-LC retention time amounted to 682 s.

`CCc1ccc(S(=O)(=O)Nc2ccc3c(c2)N(C(=O)c2cccs2)CC3)s1` registered an RP-LC retention time of 923 s.

In the case of `Cc1cc(C)c(NC(=O)Cn2nc3c4cccc(C)c4ncn3c2=O)c(C)c1`, the RP-LC retention time is 679 s.

With `COC(=O)C1=CN(C2CC2)c2cc(N3CCCCC3)c(F)cc2S1(=O)=O`, the RP-LC retention time came to 932 s.

In turn, `CC(C)CC(=O)Nc1ccc2nc(N3CCN(Cc4ccccc4F)CC3)cc(C(=O)O)c2c1` had an RP-LC retention time of 603 s.

Regarding `COc1cc(OC)c(NC(=O)COc2nc(C)nc3ccccc23)cc1Cl`, the RP-LC retention time is 771 s.

Consider `COc1cc(Cl)c(C)cc1NC(=O)C1CCCN(c2nc3ccccc3nc2OC)C1` (stereo not drawn), for which the RP-LC retention time was determined as 1380 s.

Compound `Cc1ccc(-n2c(=O)c3c(cc(C)n3C)n(CC(=O)Nc3ccc(Cl)cc3)c2=O)cc1` yielded an RP-LC retention time of 910 s.

Take `COc1ccc(-c2nnc(-c3ccccc3Cl)o2)cc1S(=O)(=O)N1CCCCCC1`: the RP-LC retention time is 1100 s.

For the compound `CC(C)Oc1cc(O)c2c(=O)cc(-c3ccccc3)oc2c1`, the RP-LC retention time was found to be 1260 s.

`COc1ccccc1-c1[nH]ncc1CN1CCC2(CC1)CC(O)CCO2` (stereo not drawn): the RP-LC retention time amounted to 561 s.

For the compound `CC(C)(C)c1noc(-c2ccc(-n3cnc(C(=O)NCc4ccc(F)cc4)c3)nc2)n1`, the RP-LC retention time turned out to be 1330 s.

`COc1ccc(-c2noc(C3CC(=O)N(c4ccc(C)c(Cl)c4)C3)n2)c(OC)c1` (stereo not drawn) yielded an RP-LC retention time of 982 s.

`Cc1ccc(-c2ccc(=O)n(Cc3nc(-c4cccs4)no3)n2)cc1C` had an RP-LC retention time of 1060 s.

Regarding `Cc1ccsc1C(=O)NCCC1CCN(C(=O)Nc2cc(F)cc(F)c2)CC1`, the RP-LC retention time was 915 s.

In turn, `COc1ccc(-c2noc(CN3N=NC4C(=O)N(c5ccc(F)cc5)C(=O)C43)n2)c(OC)c1` (stereo not drawn) came in with an RP-LC retention time of 1170 s.

Consider `Cc1cccc(-n2c(=O)c3sccc3n(Cc3nc(-c4ccc(C)c(C)c4)no3)c2=O)c1`, for which the RP-LC retention time came out at 1150 s.

For `Cc1cc(C)nc(N2CCN(c3ccc(F)cc3)CC2)n1`, the RP-LC retention time was 876 s.

On to `CCCn1cc(CCNS(=O)(=O)c2ccc(C3CCCCC3)cc2)c2cccnc21`, for which the RP-LC retention time turned out to be 1210 s.

Regarding `Cc1ccc(F)cc1NC(=O)Cc1nnc(-c2cnccn2)o1`, the RP-LC retention time is 683 s.

As to `CCN1CCN(CCCNC(=O)C2CCCN(c3ncnc4onc(C)c34)C2)CC1` (stereo not drawn), the RP-LC retention time worked out at 557 s.

Compound `CCOC(=O)c1sc(NC(=O)COc2ccccc2Br)nc1C` yielded an RP-LC retention time of 1050 s.

`COc1cc2c(cc1OC)CN(CCc1ccc(NC(=O)c3cc(OC)c(OC)cc3NC(=O)c3cnc4ccccc4c3)cc1)CC2` came in with an RP-LC retention time of 777 s.

(Values after the METLIN SMRT retention time set (Domingo-Almenara et al. 2019).)
